Where two headings read alike, the source gives them in different places.
What was measured:
[1] = system: caspase cascade, human breast cancer cell line T-47D; assay: Caspase cascade activation assay (Example 90), T-47D; assay type: cell-based; conditions: Homo sapiens, T47D; 24 h incubation; sigmoidal dose-response; read-out: T-47D EC50 (caspase activation potency)
Protocol: (§1) Human breast cancer cell lines T-47D and ZR-75-1, human prostate cancer cell line PC-3, human leukemia cancer cell line HL-60 and human non-transformed fibroblast cell line MRC-5 cells were grown according to media component mixtures designated by The American Type Culture Collection+10% FCS (Life Technologies, Inc.), in a 5% CO2-95% humidity incubator at 37° C. T-47D, ZR-75-1 and PC-3 cells were maintained at a cell density between 30 and 80% confluency and for HL-60 at a cell density of 0.1 to 0.6×10^6 cells/m. Cells were harvested at 600× g and resuspended at 0.65×10^6 cells/ml into appropriate media +10% FCS. […] The samples were mixed by agitation and incubated at room temperature.
(§2) The EC50 (nM) was determined by a sigmoidal dose-response calculation (Prism 2.0, GraphPad Software Inc.).

[2] = system: caspase cascade, human breast cancer cell line ZR-75-1; assay: Caspase cascade activation assay (Example 90), ZR-75-1; assay type: cell-based; conditions: Homo sapiens, ZR-75-1; 24 h incubation; sigmoidal dose-response; read-out: ZR-75-1 EC50 (caspase activation potency)
Protocol: as §1, §2

[3] = system: caspase cascade, human prostate cancer cell line PC-3; assay: Caspase cascade activation assay (Example 90), PC-3; assay type: cell-based; conditions: Homo sapiens; 24 h incubation; sigmoidal dose-response; read-out: PC-3 EC50 (caspase activation potency)
Protocol: as §1, §2

caspase cascade = assay: Caspase cascade activation assay (Example 90), MRC-5; assay type: cell-based, human; conditions: human
Protocol: as §1, §2

T-47D cells = assay: Inhibition of cell proliferation (GI50) and cell death (LC50), T-47D; assay type: cell-based; conditions: Homo sapiens, T47D, 48 h
Protocol: (§3) T47D, ZR-75-1, PC-3, human prostate cancer cell line DU-145, human non-small cell lung cancer cell line A-549, human small cell lung cancer cell line SHP-77, HL-60 and MRC-5 cells were grown and harvested as in Example 90. […] The samples were mixed by agitation and incubated at 37° C. for 2-4 h in a 5% CO2-95% humidity incubator. […] This determines the possible background absorbance of the test compounds. No absorbance for gambogic acid or its analogs or derivatives was found at 490 nm. After the 2-4 h incubation, the samples were read for absorbance as above (ATest).
(§4) Baseline for GI50 (dose for 50% inhibition of cell proliferation) and LC50 (dose for 50% cell death) of initial cell numbers was determined by adding an aliquot of 90 μl of cells or 90 μl of media, respectively, to wells of a 96-well microtiter plate containing 10 μl of a 10% DMSO in RPMI-1640 media solution. […] The samples were mixed by agitation and incubated at 37° C. for 2-4 h in a 5% CO2-95% humidity incubator. Absorbance was read as above, (AT=0) defining absorbance for initial cell number used as baseline in GI50 determinations and (Amin) defining absorbance for media alone used as baseline in LC50 determinations.
(§5) GI50 (dose for 50% inhibition of cell proliferation)
(§6) LC50 (dose for 50% cell death)
(§7) 50=100×[(ATest−Amin)/(AT=0−Amin)]

ZR-75-1 cells = assay: Inhibition of cell proliferation (GI50) and cell death (LC50), ZR-75-1; assay type: cell-based; conditions: Homo sapiens, ZR-75-1, 48 h
Protocol: as §3, §4, §5, §6, §7

PC-3 cells = assay: Inhibition of cell proliferation (GI50) and cell death (LC50), PC-3; assay type: cell-based; conditions: Homo sapiens, PC-3, 48 h
Protocol: as §3, §4, §5, §6, §7

[4] = system: human prostate cancer cell line DU-145; assay: Inhibition of cell proliferation (GI50) and cell death (LC50), DU-145; assay type: cell-based; conditions: Homo sapiens, DU-145, 48 h
Protocol: as §3, §4, §5, §6, §7

[5] = system: human non-small cell lung cancer cell line A-549; assay: Inhibition of cell proliferation (GI50) and cell death (LC50), A-549; assay type: cell-based; conditions: Homo sapiens
Protocol: as §3, §4, §5, §6, §7

[6] = system: human small cell lung cancer cell line SHP-77; assay: Inhibition of cell proliferation (GI50) and cell death (LC50), SHP-77; assay type: cell-based; conditions: Homo sapiens
Protocol: as §3, §4, §5, §6, §7

HL-60 cells = assay: Inhibition of cell proliferation (GI50) and cell death (LC50), HL-60; assay type: cell-based; conditions: Homo sapiens, HL-60, 48 h
Protocol: as §3, §4, §5, §6, §7

[7] = Inhibition of cell proliferation (GI50) and cell death (LC50), MRC-5; assay type: cell-based; conditions: human
Protocol: as §3, §4, §5, §6, §7

MRC-5 cells = assay: as above; assay type: cell-based; conditions: Homo sapiens, MRC5; MRC-5, 48 h; read-out: GI50 (dose for 50% inhibition of cell proliferation)
Protocol: as §3, §4, §5, §6, §7

[8] = system: caspase cascade, T-47D cells; assay: Known antineoplastic compounds as caspase cascade activators (Example 92), T-47D; assay type: cell-based, human; conditions: 10 μM final, 24 h; ratio of net RFU to control; ratio around 1 = not an efficient activator
Protocol: (§8) An aliquot of 45 μl of cells was added to a well of a 96-well microtiter plate containing 5 μl of a 10% DMSO in RPMI-1640 media solution containing 100 μM of test compounds (10 μM final). An aliquot of 45 μl of cells was added to a well of a 96-well microtiter plate containing 5 μl of a 10% DMSO in RPMI-1640 media solution without test compound as the control sample. The samples were mixed by agitation and then incubated at 37° C. for 24 h in a 5% CO2-95% humidity incubator. After incubation, the samples were removed from the incubator and 50 μl of a solution containing 20 μM of N-(Ac-DEVD)-N′-ethoxycarbonyl-R110 fluorogenic substrate (SEQ ID NO:1) (Cytovia, Inc.), 20% sucrose (Sigma), 20 mM DTT (Sigma), 200 mM NaCl (Sigma), 40 mM Na PIPES buffer pH 7.2 (Sigma), and 500 μg/ml lysolecithin (Calbiochem) was added. The samples were mixed by agitation and incubated for 3 h at room temperature. Using a fluorescent plate reader (Model 1420 Wallac Instruments), an initial reading (T=0) was made approximately 1-2 min. after addition of the substrate solution, employing excitation at 485 nm and emission at 530 nm, to determine the background fluorescence of the control sample. After the 3 h incubation, the samples were read for fluorescence as above (T=3 h).
(§9) The Relative Fluorescence Unit values (RFU) were used to calculate the sample readings as follows:
(§10) The activity in caspase cascade activation was determined by the ratio of the net RFU value for test compounds to that of control samples.

[9] = system: caspase cascade, PC-3 cells; assay: Known antineoplastic compounds as caspase cascade activators (Example 92), PC-3; assay type: cell-based, human; conditions: 10 μM final, 24 h; ratio of net RFU to control; ratio around 1 = not an efficient activator
Protocol: as §8, §9, §10

KB cell line = conditions: cited from earlier work
KB-V1 cell line = conditions: cited from earlier work
[10] = read-out: LC50 (dose for 50% cell death)
[11] = read-out: GI50 (dose for 50% inhibition of cell proliferation)
[12] = reported by Lin et al., Magn. Reson. Chem. 31:340-347 (1993)

Question: Which results are given for CC(C)=CCCC1(C)C=Cc2c(O)c3c(c(CC=C(C)C)c2O1)OC12C(=CC4CC1C(C)(C)OC2(C/C=C(/C)C(=O)N1CCN(C)CC1)C4=O)C3=O (centres unmarked) [Example 9, Gambogyl (4-Methylpiperazine)]?
Answer: EC50 [1]: 990 nM; EC50 [2]: 2050 nM; EC50 [3]: 5900 nM; EC50 at 24 h (caspase cascade): 1900 nM

Question: For COC(=O)/C(C)=C\CC12OC(C)(C)C3CC(C=C4C(=O)c5c(OC)c6c(c(CC=C(C)C)c5OC431)OC(C)(CCC=C(C)C)C=C6)C2=O (centres unmarked) [Example 6, Methyl-6-methoxy-gambogate], which EC50 [1] is on record?
Answer: The EC50 was 2800 nM.

Question: And the EC50 [3]?
Answer: The EC50 was 5000 nM.

Question: What about the CC50 (T-47D cells; [10]) of the same compound?
Answer: Its CC50 is 80 nM.

Question: And the GI50 (T-47D cells; T-47D, read-out: GI50 (dose for 50% inhibition of cell proliferation))?
Answer: Its GI50 is 50 nM.

Question: And the CC50 (ZR-75-1 cells; [10])?
Answer: Its CC50 is 500 nM.

Question: What about the GI50 (ZR-75-1 cells; [11]) of the same compound?
Answer: The GI50 was 400 nM.

Question: And the CC50 (PC-3 cells; [10])?
Answer: Its CC50 is 500 nM.

Question: What about the GI50 (PC-3 cells; [11]) of the same compound?
Answer: Its GI50 is 500 nM.

Question: And the CC50 [4, 10]?
Answer: The CC50 was 900 nM.

Question: What about the GI50 [4, 11] of the same compound?
Answer: The GI50 was 500 nM.

Question: And the CC50 ([5]; A549, 48 h, read-out: LC50 (dose for 50% cell death))?
Answer: Its CC50 is 900 nM.

Question: What about the GI50 ([5]; A549, A-549, 48 h, read-out: GI50 (dose for 50% inhibition of cell proliferation)) of the same compound?
Answer: Its GI50 is 500 nM.

Question: What about the CC50 ([6]; SHP77, 48 h, read-out: LC50 (dose for 50% cell death)) of the same compound?
Answer: Its CC50 is 500 nM.

Question: What about the GI50 ([6]; SHP77, SHP-77, 48 h, read-out: GI50 (dose for 50% inhibition of cell proliferation)) of the same compound?
Answer: The GI50 was 500 nM.

Question: And the CC50 (HL-60 cells; [10])?
Answer: The CC50 was 800 nM.

Question: And the GI50 (HL-60 cells; [11])?
Answer: The GI50 was 100 nM.

Question: What about the CC50 at 48 h [7] of the same compound?
Answer: The CC50 at 48 h was 500 nM.

Question: What about the GI50 (MRC-5 cells) of the same compound?
Answer: The GI50 was 500 nM.

Question: With CC[C@@]1(O)C(=O)OCc2c1cc1n(c2=O)Cc2cc3ccccc3nc2-1 [Camptothecin] as the compound, how does the “Caspase cascade activation ratio, T-47D” value [8] read?
Answer: The value was 0.7.

Question: And the “Caspase cascade activation ratio, PC-3” value [9]?
Answer: The value was 0.6.

Question: With CC[C@]1(O)C[C@@H]2CN(CCc3c([nH]c4ccccc34)[C@@](C(=O)OC)(c3cc4c(cc3OC)N(C)[C@H]3[C@@](O)(C(=O)OC)[C@H](OC(C)=O)[C@]5(CC)C=CCN6CC[C@]43[C@@H]65)C2)C1 [Vinblastine] as the compound, how does the “Caspase cascade activation ratio, T-47D” value [8] read?
Answer: The value was 0.9.

Question: What about the “Caspase cascade activation ratio, PC-3” value [9] of the same compound?
Answer: The value was 0.8.

Question: Which “Caspase cascade activation ratio, T-47D” value [8] does the source give for CC(=O)O[C@H]1C(=O)[C@@]2(C)[C@H]([C@H](OC(=O)c3ccccc3)[C@]3(O)C[C@H](OC(=O)[C@H](O)[C@@H](NC(=O)c4ccccc4)c4ccccc4)C(C)=C1C3(C)C)[C@]1(OC(C)=O)CO[C@@H]1C[C@@H]2O [Taxol] here?
Answer: The value was 0.9.

Question: What about the “Caspase cascade activation ratio, PC-3” value [9] of the same compound?
Answer: Its value is 0.7.

Question: Which results are given for CC(C)=CCc1c2c(c(O)c3c1OC14C(=CC5CC1C(C)(C)OC4(C/C=C(\C)CO)C5=O)C3=O)C=CC(C)(C)O2 (centres unmarked) [isomorellinol, reference compound]?
Answer: Cytotoxicity against KB cell line (KB cell line; [12]): cytotoxic; Cytotoxicity against KB-V1 cell line (KB-V1 cell line; [12]): cytotoxic

Question: Which “Cytotoxicity against KB cell line” value (KB cell line) does the source give for CC(C)=CCCC1(C)C=Cc2c(O)c3c(c(CC=C(C)C)c2O1)OC12C(=CC4CC1C(C)(C)OC2(C/C=C(\C)C(=O)O)C4=O)C3=O (centres unmarked) [Example 18, Isogambogic Acid] here?
Answer: Its value is “cytotoxic”.

Question: And the “Cytotoxicity against KB-V1 cell line” value (KB-V1 cell line)?
Answer: The value was “cytotoxic”.
